Source: US20220296566A1, “COMBINATION PRODUCT CONTAINING LIMONOID COMPOUND AND ALPHA-GLUCOSIDASE INHIBITOR” (ZHEJIANG YANGSHENGTANG INSTITUTE OF NATURAL MEDICATION CO., …, priority 2019, published 2022)

Key:
Assay type in all cases: in vivo
db/db mice [1] = test: Blood glucose in mouse type II diabetes model, db/db mice (Example 2); settings: single agent 0.04 g/kg per day by gavage, two weeks, 1 h after last administration, mean ± SD
Text: (§1) Effects of limonoid compound, acarbose or combination thereof on blood glucose and leptin in mouse type II diabetes model
(§2) In the present example, db/db mice (line name BKS.Cg-Dock7^m+/+Lepr^db/Nju) were used to perform hypoglycemic efficacy evaluation test of animals (blood glucose level and leptin). The limonoid compound was selected from obacunone, isoobacunoic acid and obacunone glycoside, and acarbose single administration group, obacunone single administration group, isoobacunoic acid single administration group, obacunone glycoside single administered group, and respective combination thereof with acarbose administration groups were set.
(§3) Conditions for experimental feeding: as type II diabetes model mice, 6-week-old SPF-grade db/db mice were purchased from the Nanjing Model Biology Institute, and subjected to experimental feeding after 7 days of preliminary feeding. It should be noted that the conditions for raising the mice were as follows: the temperature was 23±1° C., the humidity was 55±10%, the lights were turned on between 7 am and 7 pm (the lights were turned off at other time), and the mice were allowed to freely take in water and feed. […]

db/db mice [2] = test: Serum leptin by Elisa in db/db mice (Example 2); settings: single agent 0.04 g/kg per day by gavage, two weeks, mean ± SD
Text: as §1, §2, §3

STZ mice = test: Blood glucose in STZ mouse pancreatic islet β-cell injury model (Example 3); settings: STZ ICR mice; single agent 0.1 g/kg per day by gavage, two weeks; 1 h after last administration; mean ± SD
Text: Effects of limonoid compound, acarbose or combination thereof on blood glucose in mouse pancreatic islet (β-cell injury model In this example, a mouse pancreatic islet (β-cell injury model was established by modeling ICR mice with streptozotocin (STZ) (Li Nan et al., Protective effect of pine pollen on kidney damage in diabetic nephropathy mice, Science and Technology Review, 2014, 32 (4/5): 95-99), and used to complete the evaluation of hypoglycemic effect in animals (this model could simulate pancreatic islet (β-cell damage state of type I and type II diabetics). The limonoid compound was selected from the group consisting of […], and […] glycoside, and acarbose single administration group, […] single administration group, […] single administration group, […] glycoside singe administration group, and respective combination thereof with acarbose administration groups were set. Conditions of experimental feeding: ICR mice (20±2 g), aged 6 weeks, purchased from Zhejiang Academy of Medical Sciences, and subjected to experimental feeding after 7 days of preliminary feeding. […] The data were expressed as mean and standard deviation. The data before and after were analyzed by t-test, and P<0.05 was considered statistically significant.

Compound: C[C@H]1O[C@H](O[C@H]2[C@H](O)[C@@H](O)[C@@H](O[C@H]3[C@H](O)[C@@H](O)C(O)O[C@@H]3CO)O[C@@H]2CO)[C@H](O)[C@@H](O)[C@@H]1N[C@H]1C=C(CO)[C@@H](O)[C@H](O)[C@H]1O (stereo partly drawn) [Acarbose, acarbose]
- Blood glucose value (db/db mice [1]): 16.9 ± 4.0 mmol/L
- Leptin (db/db mice [2]): 35.57 ± 2.98 pg/mL
- Blood glucose value (STZ mice): 20.6 ± 4.5 mmol/L
